Test results reported in US9012397B2 (priority 2011, dated 2015).
Read-outs that look alike come from different tables or passages of the source.

Assays:
Assay type in all cases: in vivo, human
bee stings = conditions: both hands stung, 500 μg/gr cream once to the other hand, about 10 minutes after sting
Description: (§1) The method of the invention has been carried out with respect to a number of skin disorders. The patients were treated with one of two peptides, each at a concentration of 50 μg/gr cream (unless otherwise indicated):
(§2) The cream was manufactured by Amiga LTD, Israel, and contains the following components:
3. A person was stung by a bee.
4. person four was stung by bees on both hands.
5. person three was stung by bees on both hands.

radiation burns = conditions: person two after mastectomy, severe radiation burns; 500 μg/gr cream several times per day
Description: as §1, §2
4. A person with breast cancer received radiation treatment. The person suffered from radiation burns in a large skin area with blisters and open wounds. ZEP4 was applied directly to the wounds over a period of 12 days, 1-2 times per day. • Results: an immediate (˜1 minute) ease in the itching and burning sensation.
7. person two with breast cancer after mastectomy received radiation treatment. The person suffered from severe radiation burns.

vaginal herpes = conditions: female over 40, lesions on outer genital area; 50 μg/gr cream daily
Description: as §1, §2
4. A person over 40 suffered from advance vaginal herpes, with numerous lesions on the outer genital area and pronounced itching and swelling.

Varicella = conditions: person, 50 μg/gr cream
Description: as §1, §2
3. A person was diagnosed with severe Varicella, which appeared all over the body. The patient had severe itching and skin peeling. No commercial remedy helped. Initially, ZEP3 was topically applied to the hand, with improvement and relief within 24 hours. […] After 10 days, there was no sign of the disease nor were there any future complications.

flea bites = tested on: flea bites
Description: as §1, §2
1. person two was bitten by fleas on various occasions, resulting in an itching sensation. […] The ointment was reapplied after 6 hours.
2. person one who is very sensitive to flea bites was bitten by fleas, resulting in an itching sensation. […] The ointment should be reapplied after 12 hours.

Herpes simplex = tested on: Herpes simplex
Description: as §1, §2
5. A person suffered for many years from Herpes simplex on the neck, with no relief from commercial remedies. ZEP3 was applied topically once a day to the lesions. • Results: relief in itching and skin rash within 10-20 min.
6. person two was diagnosed with Herpes simplex.
7. person one was diagnosed with Herpes simplex.
8. person four suffered from Herpes simplex from childhood.
9. A person suffered from Herpes simplex lesions on the lips and face. […] 1-2 applications cause the lesions to disappear.
10. A person suffered from Herpes simplex on the lips, mainly when under pressure. […] The blisters disappeared after 24 hours.
11. A person suffered from Herpes simplex on the lips. ZEP3 (500 μg/gr cream) was topically applied several times during the day on the wound. • Results: the person felt relief after several minutes. The itching and redness lessened immediately and the wound disappeared after 36 hours.
12. 7 subjects suffering from Herpes simplex were treated with ZEP3.
13. A person suffered from Herpes simplex lesions on the lips.
14. A person has a festering Herpes simplex lesion. Generally, 10 days are required for recuperation.
15. A person suffered intermittingly from Herpes simplex on the lips, with blisters.

burns = tested on: burns
Description: as §1, §2
1. A person was lightly burned on the back of the hand which touched a very hot object. ZEP4 was immediately applied to the burn site. • Results: the burn mark disappeared within 1 hour. No additional treatments were necessary.
2. A person was severely burned by boiling water on the palm of the hand. […] At the end of 2 weeks there was no sign of the burn, nor thereafter.
3. person two was lightly burned on their finger from boiling oil. […] No further treatments were necessary.
5. A person was burnt on their hand from an oven. […] The burn took on a light brown color.
6. 4 light burn cases, three from touching a hot surface and one from a chemical substance in a laboratory, were treated with ZEP3.
8. person three with irritated skin on the hand due to the rubbing of a watch band. The irritated skin came into contact with a chemical substance (used as a disinfectant). A severe redness developed similar to a burn, and a strong itching feeing. […] D. Oral Cavity

psoriasis = conditions: person
Description: as §1, §2
1. A person suffered from intermittent psoriasis on their head over many years. […] The patient believes that the frequency of the outbreaks has been reduced.
2. A person suffered from psoriasis on the hands. […] The patient believes that a 20% improvement has occurred over 2 weeks.
3. A person suffered from psoriasis in the anus.
4. A person suffered from extensive psoriasis at various locations. ZEP3 (500 μg/gr cream) was applied to the sores as needed. • Results: the itching ceased within 12 hours.
5. A person suffered from chronic psoriasis on the elbow.
6. A person suffered from severe psoriasis at various locations. They regularly went for treatments to the Dead Sea in Israel.

Herpes zoster = conditions: person, 50 μg/gr cream
Description: as §1, §2
1. A person was diagnosed with Herpes zoster (shingles), which appeared as a painful, circumferential rash in the abdominal area. The patient had been on antibiotics, with no improvement.
2. A person was diagnosed with Herpes zoster, which appeared as painful lesions with skin edema on the mid back area, appearing several times a year. […] Decrease in the skin rash and the degree of the sore and swelling and a shortening of the time of recovery (healing).

mosquito bites = tested on: mosquito bites
Description: as §1, §2
8. males and four females suffered from mosquito bites. […]
9. 3 subjects suffering from mosquito bites were treated with ZEP3.

[1] = entire body twice a day for two weeks
[2] = person, lesions on lips and face, 50 μg/gr cream
[3] = person, lips, 500 μg/gr cream several times a day
[4] = person, neck, 50 μg/gr cream once a day
[5] = chronic psoriasis on elbow, 500 μg/gr cream
[6] = intermittent psoriasis on head, 500 μg/gr cream once or twice a day
[7] = abdominal rash, 2-3 times a day

pGLU-ASN-TRP-LYS-C8 [ZEP3] was tested, and the clinical outcome (bee stings; person four) was “the swelling shrunk and the redness decreased to an identical degree on each hand”, the clinical outcome (bee stings; person three) was “the swelling shrunk and the redness decreased to an identical degree on each hand” and the clinical outcome (radiation burns) was “felt immediate relief”. For the same substance, the clinical outcome (vaginal herpes) was “the redness and swelling decreased, and the lesions healed”, the clinical outcome (Varicella; [1]) was “shortening the time of recovery (healing)” and the “time to decrease in the skin rash and the degree of the sore and swelling” value (Varicella; [1]) was 10 to 20 min. For the same substance, the “time until no sign of the disease” value (Varicella; [1]) was 10 days, the “time to improvement and relief” value (Varicella; initial application to the hand) was no more than 24 h and the clinical outcome (flea bites; person one very sensitive to flea bites, 50 μg/gr cream) was “almost immediate cessation of the itching sensation”. The clinical outcome (flea bites; person two, 50 μg/gr cream several times to bite location) was “immediate cessation of the itching sensation”, the clinical outcome (Herpes simplex; 7 subjects, 50 μg/gr cream) was “found to be therapeutic” and the “clinical outcome as compared to treatment with Zovirax®” value (Herpes simplex; person four, 50 μg/gr cream several times) was “Rapid drying of the lesion, shrinking of swelling and swift conclusion of the outbreak”. The recuperation period (Herpes simplex; person, festering lesion, generally 10 days required, 500 μg/gr cream as needed) was “shortened by half”, the clinical outcome (Herpes simplex; [2]) was “the lesions now appear only infrequently” and the “number of applications that cause the lesions to disappear” value (Herpes simplex; [2]) was 1-2 applications. For the same substance, the clinical outcome (Herpes simplex; person, lips with blisters, 500 μg/gr cream as needed) was “immediate relief; the blisters stopped developing and disappeared after several hours”, the clinical outcome (Herpes simplex; [3]) was “felt relief after several minutes. The itching and redness lessened immediately” and the “time until wound disappeared” value (Herpes simplex; [3]) was 36 h. For the same substance, the clinical outcome (Herpes simplex; [4]) was “The lesions disappeared and did not return during the last 5 years”, the “time to relief in itching and skin rash” value (Herpes simplex; [4]) was 10 to 20 min and the clinical outcome (Herpes simplex; person, pricking sensation on upper lip, 500 μg/gr cream as needed) was “the pricking sensation ceased and Herpes lesions did not develop”. The clinical outcome (burns; 4 light burn cases (three hot surface, one chemical substance), 50 μg/gr cream) was “found to be therapeutic both for the pain and for the healing”, the clinical outcome (burns; person three, irritated skin on hand contacted a disinfectant, burn-like redness and itching, ZEP4 and ZEP3 each 500 μg/gr cream) was “immediate relief from the redness and itching” and the clinical outcome (psoriasis; [5]) was “the flaking of the skin disappeared and the normal skin appearance returned”. The “time until itching terminated” value (psoriasis; [5]) was 2 h, the “time until itching ceased” value (psoriasis; extensive psoriasis, 500 μg/gr cream as needed) was no more than 12 h and the clinical outcome (psoriasis; [6]) was “the disease disappeared”. The time to relief (psoriasis; [6]) was 10 to 20 min, the “time until relief is felt” value (psoriasis; psoriasis in the anus, (500 μg/gr cream) once a day) was 4 days and the clinical outcome (psoriasis; psoriasis in the anus, (500 μg/gr cream) once a day, stopped several days, repeated for 4 days) was “the psoriasis disappeared”. For the same substance, the clinical outcome (psoriasis; psoriasis on hands, 500 μg/gr cream once a day) was “feels relief; the skin is pleasant feeling and not itchy”, the “improvement as believed by the patient” value (psoriasis; psoriasis on hands, 500 μg/gr cream once a day, over 2 weeks) was 20% and the clinical outcome (Herpes zoster; [7]) was “a decrease in the skin redness and the degree of the swelling and itching”. For the same substance, the “time to improvement in the rash” value (Herpes zoster; [7]) was 2 to 10 min, the clinical outcome (Herpes zoster; lesions with skin edema on mid back, applied 4-5 times) was “reduced skin edema and an increase in the intervals between attacks. Decrease in the skin rash and the degree of the sore and swelling and a shortening of the time of recovery (healing)” and the clinical outcome (mosquito bites; 3 subjects, 50 μg/gr cream) was “found to be therapeutic both for the itching and for the healing”. For the same substance, the clinical outcome (mosquito bites; two males and four females, 30-57 years old, (500 μg/gr cream) as needed) was “an immediate relief from the itching sensation was felt”.
